Test results reported in US12533428B2, “Multimodal fluorine-CY3/5/7-DOTA-hapten compositions, diagnostics, fluorescence guided surgery and radioimmunotherapy” (Memorial Sloan Kettering Cancer Center, priority 2019, dated 2026).

Assay: In vivo biodistribution and pharmacokinetics in tumor free mice (gamma counter)
Experimental: The in vivo biodistribution and pharmacokinetics of ([^177Lu]-Compound 6) and BnDOTA[^177Lu] was investigated in tumor free mice. See FIGS. 17A-17B and Tables 2 and 3. Mice were dosed with radiolabeled probes at t=0 and sacrificed at various time points. Organs were harvested and activity was counted by gamma counter. Tables 2-3 show the serial biodistribution data for the analyzed organs of Compound 6 and Compound 2, respectively. FIG. 17A overlays the time course in activity in either vital tissues (left panel) or the blood (right panel) between the two probes.

Question: With “BnDOTA[^177Lu] [[^177Lu]-Compound 2, reference compound]” as the substance, how does the Uptake (Blood, 1 h after dosing) read?
Answer: 0.068 ± 0.029 % injected Dose/gram

Question: What about the Uptake (Blood, 2 h after dosing) of the same substance?
Answer: 0.013 ± 0.005 % injected Dose/gram

Question: What about the Uptake (Blood, 4 h after dosing) of the same substance?
Answer: 0.001 ± 0 % injected Dose/gram

Question: And the Uptake (Blood, 24 h after dosing)?
Answer: 0.001 ± 0 % injected Dose/gram

Question: And the Uptake (Blood, 48 h after dosing)?
Answer: 0.001 ± 0.001 % injected Dose/gram

Question: And the Uptake (Bone, 1 h after dosing)?
Answer: 0.04 ± 0.012 % injected Dose/gram

Question: What about the Uptake (Bone, 2 h after dosing) of the same substance?
Answer: 0.325 ± 0.276 % injected Dose/gram

Question: And the Uptake (Bone, 4 h after dosing)?
Answer: 0.015 ± 0.013 % injected Dose/gram

Question: What about the Uptake (Bone, 24 h after dosing) of the same substance?
Answer: 0.01 ± 0.008 % injected Dose/gram

Question: And the Uptake (Bone, 48 h after dosing)?
Answer: 0.018 ± 0.028 % injected Dose/gram

Question: What about the Uptake (Brain, 1 h after dosing) of the same substance?
Answer: 0.015 ± 0.006 % injected Dose/gram

Question: And the Uptake (Brain, 2 h after dosing)?
Answer: 0.025 ± 0.01 % injected Dose/gram

Question: What about the Uptake (Brain, 4 h after dosing) of the same substance?
Answer: 0.01 ± 0 % injected Dose/gram

Question: What about the Uptake (Brain, 24 h after dosing) of the same substance?
Answer: 0.001 ± 0 % injected Dose/gram

Question: What about the Uptake (Brain, 48 h after dosing) of the same substance?
Answer: 0.001 ± 0.001 % injected Dose/gram

Question: What about the “Biodistribution, comparison of the two probes” value (FIG. 17B) of the same substance?
Answer: comparable biodistribution

Question: What about the Uptake (Heart, 1 h after dosing) of the same substance?
Answer: 0.033 ± 0.013 % injected Dose/gram

Question: What about the Uptake (Heart, 2 h after dosing) of the same substance?
Answer: 0.023 ± 0.005 % injected Dose/gram

Question: And the Uptake (Heart, 4 h after dosing)?
Answer: 0.01 ± 0 % injected Dose/gram

Question: What about the Uptake (Heart, 24 h after dosing) of the same substance?
Answer: 0.01 ± 0 % injected Dose/gram

Question: What about the Uptake (Heart, 48 h after dosing) of the same substance?
Answer: 0.016 ± 0.03 % injected Dose/gram

Question: And the Uptake (Kidneys, 1 h after dosing)?
Answer: 0.86 ± 0.177 % injected Dose/gram

Question: And the Uptake (Kidneys, 2 h after dosing)?
Answer: 0.8 ± 0.065 % injected Dose/gram

Question: What about the Uptake (Kidneys, 4 h after dosing) of the same substance?
Answer: 0.695 ± 0.106 % injected Dose/gram

Question: What about the Uptake (Kidneys, 24 h after dosing) of the same substance?
Answer: 0.448 ± 0.109 % injected Dose/gram

Question: And the Uptake (Kidneys, 48 h after dosing)?
Answer: 0.233 ± 0.153 % injected Dose/gram

Question: And the Uptake (Lg. Intestine, 1 h after dosing)?
Answer: 0.088 ± 0.083 % injected Dose/gram

Question: And the Uptake (Lg. Intestine, 2 h after dosing)?
Answer: 2.878 ± 2.718 % injected Dose/gram

Question: What about the Uptake (Lg. Intestine, 4 h after dosing) of the same substance?
Answer: 1.865 ± 0.963 % injected Dose/gram

Question: And the Uptake (Lg. Intestine, 24 h after dosing)?
Answer: 0.02 ± 0 % injected Dose/gram

Question: And the Uptake (Lg. Intestine, 48 h after dosing)?
Answer: 0.018 ± 0.013 % injected Dose/gram

Question: And the Uptake (Liver, 1 h after dosing)?
Answer: 0.658 ± 0.074 % injected Dose/gram

Question: And the Uptake (Liver, 2 h after dosing)?
Answer: 0.358 ± 0.083 % injected Dose/gram

Question: And the Uptake (Liver, 4 h after dosing)?
Answer: 0.065 ± 0.024 % injected Dose/gram

Question: What about the Uptake (Liver, 24 h after dosing) of the same substance?
Answer: 0.028 ± 0.01 % injected Dose/gram

Question: What about the Uptake (Liver, 48 h after dosing) of the same substance?
Answer: 0.018 ± 0.012 % injected Dose/gram

Question: What about the Uptake (Lungs, 1 h after dosing) of the same substance?
Answer: 0.083 ± 0.032 % injected Dose/gram

Question: What about the Uptake (Lungs, 2 h after dosing) of the same substance?
Answer: 0.048 ± 0.005 % injected Dose/gram

Question: What about the Uptake (Lungs, 4 h after dosing) of the same substance?
Answer: 0.023 ± 0.005 % injected Dose/gram

Question: What about the Uptake (Lungs, 24 h after dosing) of the same substance?
Answer: 0.013 ± 0.005 % injected Dose/gram

Question: And the Uptake (Lungs, 48 h after dosing)?
Answer: 0.01 ± 0 % injected Dose/gram

Question: And the Uptake (Muscle, 1 h after dosing)?
Answer: 0.028 ± 0.01 % injected Dose/gram

Question: And the Uptake (Muscle, 2 h after dosing)?
Answer: 0.043 ± 0.013 % injected Dose/gram

Question: What about the Uptake (Muscle, 4 h after dosing) of the same substance?
Answer: 0.013 ± 0.005 % injected Dose/gram

Question: And the Uptake (Muscle, 24 h after dosing)?
Answer: 0.003 ± 0.005 % injected Dose/gram

Question: What about the Uptake (Muscle, 48 h after dosing) of the same substance?
Answer: 0.051 ± 0.1 % injected Dose/gram

Question: What about the Uptake (Sm. Intestine, 1 h after dosing) of the same substance?
Answer: 1.493 ± 0.554 % injected Dose/gram

Question: What about the Uptake (Sm. Intestine, 2 h after dosing) of the same substance?
Answer: 0.86 ± 0.389 % injected Dose/gram

Question: What about the Uptake (Sm. Intestine, 4 h after dosing) of the same substance?
Answer: 0.128 ± 0.05 % injected Dose/gram

Question: What about the Uptake (Sm. Intestine, 24 h after dosing) of the same substance?
Answer: 0.01 ± 0 % injected Dose/gram

Question: What about the Uptake (Sm. Intestine, 48 h after dosing) of the same substance?
Answer: 0.005 ± 0.006 % injected Dose/gram

Question: What about the Uptake (Spleen, 1 h after dosing) of the same substance?
Answer: 0.06 ± 0.041 % injected Dose/gram

Question: What about the Uptake (Spleen, 2 h after dosing) of the same substance?
Answer: 0.053 ± 0.005 % injected Dose/gram

Question: What about the Uptake (Spleen, 4 h after dosing) of the same substance?
Answer: 0.025 ± 0.01 % injected Dose/gram

Question: What about the Uptake (Spleen, 24 h after dosing) of the same substance?
Answer: 0.023 ± 0.005 % injected Dose/gram

Question: What about the Uptake (Spleen, 48 h after dosing) of the same substance?
Answer: 0.01 ± 0.012 % injected Dose/gram

Question: What about the Uptake (Stomach, 1 h after dosing) of the same substance?
Answer: 0.06 ± 0.055 % injected Dose/gram

Question: What about the Uptake (Stomach, 2 h after dosing) of the same substance?
Answer: 0.2 ± 0.071 % injected Dose/gram

Question: What about the Uptake (Stomach, 4 h after dosing) of the same substance?
Answer: 0.045 ± 0.017 % injected Dose/gram

Question: And the Uptake (Stomach, 24 h after dosing)?
Answer: 0.01 ± 0 % injected Dose/gram

Question: And the Uptake (Stomach, 48 h after dosing)?
Answer: 0.013 ± 0.013 % injected Dose/gram

Question: And the Uptake (Tail, 1 h after dosing)?
Answer: 0.245 ± 0.179 % injected Dose/gram

Question: And the Uptake (Tail, 2 h after dosing)?
Answer: 0.183 ± 0.056 % injected Dose/gram

Question: What about the Uptake (Tail, 4 h after dosing) of the same substance?
Answer: 0.118 ± 0.041 % injected Dose/gram

Question: What about the Uptake (Tail, 24 h after dosing) of the same substance?
Answer: 0.065 ± 0.044 % injected Dose/gram

Question: And the Uptake (Tail, 48 h after dosing)?
Answer: 0.01 ± 0.008 % injected Dose/gram

Question: What about the “Clearance (time course of activity in vital tissues and blood)” value (comparison of the two probes) of the same substance?
Answer: cleared at similar rates
